# Reference: patent US6570004B1 (priority 1996, dated 2003)
# Tested on: dapE- H. pylori mutant
# Type: cell-based, Helicobacter pylori
structure (smiles),measurement,value
"N[C@H](CCC[C@H](N)C(=O)O)C(=O)O [DAP, diaminopimelic acid]",Minimum DAP concentration required for survival of the dapE− mutant,0.2 mM
